Among the data in PMC9317696, “New Benzil and Isoflavone Derivatives with Cytotoxic and NO Production Inhibitory Activities from Placolobium vietnamense” (Molecules, 2022) are IC50 values, retold here.

Common to all, as to format: cell-based
For series [1], the system named is NO production in macrophage RAW 264.7 cells. Description: Inhibition of LPS-induced NO production in RAW 264.7 macrophages (Griess). The settings on record: Mus musculus. As for the experimental part: (§1) RAW 264.7 cells were stocked in Dulbecco’s Modified Essential and grown at the condition of 37 °C in DMEM supplemented with 10% heat-inactivated FBS, streptomycin sulfate (100 µg/mL), and penicillin (100 units/mL) in a humidified environment of 5% CO2. The RAW 264.7 cells were pre-incubated every two days.
The RAW 264.7 cells were stimulated with or without 1 μg/mL of LPS (lipopolysaccharide), which was purchased from Sigma Chemical Co. (St. Louis, MO, USA), for 24 h with or without 0.5% DMSO, celastrol, and isolated compounds at the indicated concentrations. The culture supernatant (100 μL) was then reacted with 100 μL of Griess reagent. After the Griess assay, the remaining cells were used to screen for their viability using colorimetric assay-MTT (Sigma Chemical Co., St. Louis, MO, USA).

Series [2] in a line: Cell viability assay (MTT) on RAW 264.7 cells. The settings on record: mouse, read-out: cytotoxicity toward RAW 264.7 cells IC50. The method, then:
as §1
The cell viability assay was used to determine the cytotoxic effect of the isolated compounds on RAW 264.7 cells. At a density of 1 × 10^5 cells per well, RAW 264.7 cells were seeded on a 96-well plate and allowed to adhere for 4 h. Then, the cells were treated with 0.5% DMSO, celastrol, and isolated compounds at the indicated concentrations. Celastrol was used as a positive control. After incubating 24 h, the viable cells were measured with a colorimetric assay based on the mitochondria’s ability in viable cells to reduce MTT [18]. The viability cells were treated with vehicle only and were defined as 100% viable. [OD570 (treated cell culture) × 100]/OD570 was the formula used to determine the percentage of macrophage surviving cells after treatment (vehicle control).

Another series relates to Hep G2 cells. Description: Cytotoxicity assay (MTT) against Hep G2 cell line. The settings on record: Homo sapiens. As for the experimental part: According to a previous procedure, the cytotoxic evaluation of 1–8 against the growth of human hepatocellular carcinoma (Hep G2) cell line was carried out. The positive control was ellipticine, a powerful anticancer medication with various modes of action. The cancer cells were grown in Dulbecco’s Modified Essential Medium (DMEM) at 37 °C in a 5 % CO2 environment with 10% fetal bovine serum (FBS), 1% penicillin and streptomycin, and 1% L-glutamine. The investigated compounds were added at concentrations ranging from 0.5 to 128 µg/mL by dissolving in DMSO (20 mg/mL), and the incubation was carried out once more for 72 h under the same conditions. Following the procedure, an MTT solution (10 µL, 5 mg/mL) was added to each well. The percentage of cell viability vs. sample concentration was plotted using SigmaPlot 10 (Systat Software Inc., San Jose, CA, USA) to calculate the IC50 values.

The mark [3] stands for this setting: RAW264.7, RAW 264.7 cells, 1 μg/mL LPS, 24 h, Griess reagent, mean of three experiments ± SD, read-out: NO Production (IC50).
Setting [4] is: HepG2, 72 h, read-out: Cytotoxicity (IC50, µM).

Where two headings read alike, the source gives them in different places.

In general, IC50 refers to the point on the concentration scale where inhibition reaches its midpoint. Take `CC1=C(O)C(=O)C=C2C1=CC=C1[C@@]2(C)CC[C@@]2(C)[C@@H]3C[C@](C)(C(=O)O)CC[C@]3(C)CC[C@]12C` [Celastrol, celastrol, reference compound]: in series [1] (RAW264.7, 24 h, read-out: NO Production (IC50, µM)), the half-maximal inhibitory concentration (IC50) was 1 ± 0.1 µM.
Take `COc1ccc(-c2coc3c4c(c(OC)cc3c2=O)OC(C)(C)CC4)cc1` [Compound 1, placovinone A]: in series [2], the IC50 at 24 h came out at 79.2 µM. Besides, the IC50 in series [1] (setting [3]) was 13.7 ± 0.5 µM; with Hep G2 cells (setting [4]), 8 ± 0.2 µM.
`COc1cc(OC)c(C(=O)C(=O)c2cc(OC)c3c(c2O)C=CC(C)(C)O3)cc1OC` [Compound 2, placovinone B]: the IC50 is 31 ± 0.3 µM in series [1] (setting [3]) and 19.8 ± 1.5 µM in the series with Hep G2 cells (setting [4]).
As for `COc1cc(OC)c(OC)cc1CC(=O)c1cc(OC)c2c(c1O)C=CC(C)(C)O2` [Compound 3, placovinone C], the IC50 in series [1] (setting [3]) was determined as 47.4 ± 0.3 µM; with Hep G2 cells (setting [4]), 22.9 ± 0.5 µM.
Take `COc1ccc(CC(=O)c2cc(OC)c3c(c2O)C=CC(C)(C)O3)cc1` [Compound 4, placovinone D]: the IC50 at 24 h in series [2] turned out to be 42.6 µM. Besides, the values for the IC50 (in series [1] (setting [3]); in the series on Hep G2 cells (setting [4])) were 15.5 ± 0.4 µM and 23.4 ± 0.5 µM, respectively.
With `COc1cc2c(cc1-c1coc3c4c(c(OC)cc3c1=O)OC(C)(C)C=C4)OCO2` [Compound 5, ichthynone], the IC50 in series [1] (setting [3]) is above 100 µM; with Hep G2 cells (setting [4]), 99.1 ± 0.9 µM.
The corresponding values for `COc1cc2c(=O)c(-c3ccc4c(c3)OCO4)coc2c2c1OC(C)(C)C=C2` [Compound 6, durmillone] are above 100 µM and 71.6 ± 0.6 µM.
Consider `CC1(C)C=Cc2c(ccc3c(=O)c(-c4ccc5c(c4)OCO5)coc23)O1` [Compound 7, calopogoniumisoflavone B], for which the values for the IC50 (in series [1] (setting [3]); with Hep G2 cells (setting [4])) were above 100 µM and 66.6 ± 0.5 µM, respectively.
The corresponding values for `COc1ccc(-c2coc3c4c(ccc3c2=O)OC(C)(C)C=C4)cc1OC` [Compound 8, 4′,5′-dimethoxy-6,6-dimethylpyranoisoflavone] are 54.7 ± 0.2 µM and 35.6 ± 0.3 µM.
Take `Cc1c2ccncc2c(C)c2c1[nH]c1ccccc12` [Ellipticine, ellipticine, reference compound]: the IC50 with Hep G2 cells (HepG2, Hep G2 cells, 72 h, MTT, mean of three experiments ± SD, read-out: Cytotoxicity (IC50)) turned out to be 0.43 ± 0.03 µM.
